Active and inactive are the calls of the source. The calls are words filed in the database; no cut-off is given here.
System: Staphylococcus aureus
Test: Induction of membrane integrity impairment in methicillin-resistant Staphylococcus aureus ATCC 700699 at 3.125 to 12.5 uM measured for 30 mins by DiOC2(3) probe based fluorescence assay
Type: functional, organism-based

Question: Which Activity does the source give for `N#CC(C#N)=NNc1cccc(Cl)c1` here?
Answer: The Activity was “Active”.

From ChEMBL document CHEMBL4406882, “The plant-derived chalcone Xanthoangelol targets the membrane of Gram-positive bacteria” (Bioorg Med Chem, 2019)
